The conditions of assay [1]: reported in U.S. Patent No. 4,411,925; cited from earlier work.
For assay [2] the following is noted: disclosed by Zeng et al.; cited from earlier work.
A short description of assay [3]: Sweetness potency: four tasters compare dilutions of the test compound with a 200 ppm aspartame solution. Type of assay: in vivo. The settings on record: against 200 ppm aspartame solution, aspartame taken as 180 times sucrose. As to the method:
The sweetness potency was determined by having four tasters compare the sweetness of various dilutions of the test compound with a 200 ppm equivalent solution of aspartame, wherein the sweetness of aspartame was taken to be 180 times sucrose. […]

The conditions of assay [4]: value adopted for the reference solution; cited from earlier work.

Here are results for 20 molecules from patent EP0779296A2, “D-alpha-aminoalkanoyl-(S)-N-alpha-alkylbenzyl amides useful as intermediates for artificial sweeteners” (THE COCA-COLA COMPANY, priority 1992, dated 1994).

Where a SMILES comes first, the peptide text is derived from it.

Turning to `C[C@@H](NC(=O)[C@@H](N)CC(=O)O)C(=O)NC(C1CC1)C(C)(C)C` (mixture of isomers) [L-aspartyl-D-alanine amide of (+/-) t-butyl-cyclopropyl methylamine], the “sweetness potency (SP)” value in assay [1] was 1200 times sucrose. Consider `Cc1cccc(C)c1NC(=O)[C@@H](C)NC(=O)[C@@H](N)CC(=O)O` [2,6-dimethyl-aniline amide], for which, in assay [2], the sweetness potency is listed as 500 times the sweetness of sucrose. In assay [3], `C[C@H](NC(=O)[C@@H](C)NC(=O)[C@@H](N)CC(=O)O)c1ccccc1` [Example 2, L-aspartyl-D-alanine-N-(S)-α-methyl-benzylamide] yielded a Sweetness of 180 times sucrose.

In assay [3], `CC[C@@H](NC(=O)[C@@H](N)CC(=O)O)C(=O)N[C@@H](C)c1ccccc1` [Example 3, L-aspartyl-D-α-aminobutyric-acid N-(S)-α-methylbenzyl amide] yielded a Sweetness of 360 times sucrose. On the same count and under the same terms, next, `CCC[C@@H](NC(=O)[C@@H](N)CC(=O)O)C(=O)N[C@@H](C)c1ccccc1` [Example 4, L-aspartyl-D-α-aminopentanoic-acid-N-(S)-α-methylbenzyl amide]: 90 times sucrose.

With `CC(C)[C@@H](NC(=O)[C@@H](N)CC(=O)O)C(=O)N[C@@H](C)c1ccccc1` [Example 5, L-aspartyl-D-valine-N-(S)-α-methylbenzyl amide], the Sweetness in assay [3] is given as 540 times sucrose. Consider `C[C@H](NC(=O)[C@H](NC(=O)[C@@H](N)CC(=O)O)c1ccccc1)c1ccccc1` [Example 6, L-aspartyl-D-phenylglycine-N-(S)-α-methylbenzyl amide], for which the Sweetness in assay [3] turned out to be 270 times sucrose.

With `C[C@@H](NC(=O)[C@@H](N)CC(=O)O)C(=O)N[C@H](C)c1ccccc1` [Example 7, L-aspartyl-D-alanine-N-(R)-α-methylbenzyl amide], the Sweetness entry in assay [3] is “less than 10 times sucrose”. Still for that read-out and setting: next, `CCC(NC(=O)[C@@H](C)NC(=O)[C@@H](N)CC(=O)O)c1ccccc1` (stereo partly drawn) [Example 8, L-aspartyl-D-alanine-N-(R,S)-α-ethylbenzyl amide]: 270 times sucrose; `CC(C)C(NC(=O)[C@@H](C)NC(=O)[C@@H](N)CC(=O)O)c1ccccc1` (stereo partly drawn) [Example 9, L-aspartyl-D-alanine-N-(R,S)-α-isopropylbenzyl amide]: 180 times sucrose; `C[C@@H](NC(=O)[C@@H](N)CC(=O)O)C(=O)NC(c1ccccc1)C(C)(C)C` (stereo partly drawn) [Example 10, L-aspartyl-D-alanine-N-(R,S)-α-t-butylbenzyl amide]: 150 times sucrose.

In assay [3], `CCCC(NC(=O)[C@@H](C)NC(=O)[C@@H](N)CC(=O)O)c1ccccc1` (stereo partly drawn) [Example 11, L-aspartyl-D-alanine-N-(R,S)-α-n-propylbenzyl amide] yielded a Sweetness of 90 times sucrose. Still for that read-out and setting: for `C[C@@H](NC(=O)[C@@H](N)CC(=O)O)C(=O)NC(c1ccccc1)c1ccccc1` [Example 12, L-aspartyl-D-alanine-N-α-phenyl benzyl amide] the value was 180 times sucrose; for `C[C@@H](NC(=O)[C@@H](N)CC(=O)O)C(=O)NC(c1ccccc1)C1CC1` (stereo partly drawn) [Example 13, L-aspartyl-D-alanine-N-α-cyclopropyl benzyl amide], 1,080 times sucrose. With `CC[C@H](NC(=O)[C@@H](CC)NC(=O)[C@@H](N)CC(=O)O)c1ccccc1` [Example 14, L-aspartyl-D-α-aminobutyric acid-N-(S)-α-ethylbenzyl amide], the values for the Sweetness in assay [3] and in assay [3] (listed as L-aspartyl-D-α-aminobutyric-acid-(S)-N-α-alkylbenzyl amide) were 2500 x Sucrose and 2500 times sucrose, respectively.

As for `CC[C@H](NC(=O)[C@H](NC(=O)[C@@H](N)CC(=O)O)C(C)C)c1ccccc1` [Example 15, L-aspartyl-D-valine-N-(S)-α-ethylbenzyl amide], the Sweetness in assay [3] was found to be 1500 times sucrose. With `CC[C@@H](NC(=O)[C@@H](N)CC(=O)O)C(=O)NC(C1CC1)C1CC1` [R = ethyl], in assay [1], the “sweetness potency (SP)” value is listed as 500 times sucrose. With `CC(C)[C@@H](NC(=O)[C@@H](N)CC(=O)O)C(=O)NC(C1CC1)C1CC1` [R = isopropyl], in assay [1], the “sweetness potency (SP)” value is recorded as 110 times sucrose. Take `C[C@@H](NC(=O)[C@@H](N)CC(=O)O)C(=O)NC(C1CC1)C1CC1` [R = methyl]: in assay [1], the “sweetness potency (SP)” value is 1200 times sucrose.

As for `COC(=O)[C@H](Cc1ccccc1)NC(=O)[C@@H](N)CC(=O)O` [aspartame] (H-Asp-Phe-OMe), in assay [4], the “sweetness of aspartame (adopted reference value)” value was 180 times sucrose.
